Consider 14 molecules from patent US20140073637A1, “AMINO-SUBSTITUTED-ALKYLOXY-BENZO[E]PYRIDO[4,3-B]INDOLE DERIVATIVES AS NEW POTENT KINASE INHIBITORS” (INSTITUT CURIE, priority 2011, published 2014).

The IC50 is the midpoint of a concentration-inhibition curve.

For one assay, the target named is Aurora B (Homo sapiens, UniProt Q96GD4). Put plainly: Aurora B inhibition in cells: Histone H3 Ser10 phosphorylation by western blotting and immunofluorescence. In kind it is cell-based. Details: endogenous in cells; host or cells: U2OS (human osteosarcoma); HeLa also used for the maleate salts; key to Aurora B inhibition: +++: very efficient inhibition; −: no inhibition. To be noted: for Aurora B inhibition: cells, Histone H3 Ser10 phosphorylation, western blotting and immunofluorescence, compounds 1 μM; for Aurora B kinase inhibition of maleate salts (in words): U2OS and HeLa cells, 1 μM overnight with Nocodazole, immunoblotting (FIG. 11). The procedure: Actin is used as control of quantity. Cells were incubated overnight in the presence of either C1, or C2 or CH21 or C14 or DMSO(C: control). All compounds were tested at 1 μM. Proteins were detected by western blotting.
Cells were incubated with the different molecules and Aurora B inhibition is estimated by western blotting (WB) and immuno fluorescent experiments. Histone H3 phosphorylated on Ser10 is used as a marker of Aurora B kinase activity and actin as an internal control. Each WB signal is compared to the control in the absence of compound. The efficiency estimated by WB is indicated by +++: very efficient inhibition to −: no inhibition. Immunofluorescent labelling of a mitotic cell by Histone H3 illustrates Aurora B kinase activity. However immunofluorescence is less sensitive than WB. Active molecules are underlined by a square and the intensity of the line indicates the efficiency of inhibition.
FIG. 10A: Immunofluorescence with phospho-Ser10-Histone H3 antibodies. Either the percentage of positive phospho-Ser10-Histone H3 is indicated or a representative mitosis shown. […] Immunofluorescent assays were realized with a specific phospho-antibody and mitotic U2OS cells are recognized by their DNA content stained with Hoechst. On the right, a representative cell or the percentage of H3-S10-P labelled mitosis.
FIG. 10B: Immunoblotting analysis of histone H3 phosphorylation. U2OS cells were incubated overnight with Nocodazole (50 nM) in the presence of either DMSO (Co) or Compounds (1 μM). Cells were then collected and lyzed. Identical amounts of the lyzed cell samples were run on 18% acrylamide gel containing SDS.
FIGS. 11B and 11C: Immunoblotting analysis of histone H3 phosphorylation. U2OS and HeLa cells were incubated overnight with Nocodazole (50 nM) in the presence of either DMSO (Co) or Compounds (1 μM). Cells were then collected and lyzed. Identical amounts of the lyzed cell samples were run on 18% acrylamide gel containing SDS.
Cells were incubated with the different molecules and Aurora B inhibition is estimated by western blotting and immunofluorescent experiments. Histone H3 phosphorylated on Ser10 is used as a marker of Aurora B kinase activity and actin as an internal control. Results are represented in FIGS. 4 and 10 and Table 3.
(§1) Cells were treated by compounds, harvested and lyzed in 9M urea then supplemented with Laemmli sample buffer. Cell extracts were subjected to SDS-PAGE and transferred to nitrocellulose filter (GE Healthcare). After blocking with 5% non-fat milk in PBS for at least 1 hour, the membranes were incubated with the primary antibodies. The following antibodies were used: phospho-Histone H3 Ser10 (1:2000, Upstate Biotechnology), anti LAST1 (Cell signalling), anti Aurora B (epitomics) and anti alpha-tubulin (Sigma) Anti-rabbit horseradish peroxidase (1:5000, GE Healthcare) was used as secondary antibodies. Bands were visualized by ECL technique (Amersham Bioscience).
Cells were seeded on glass coverslips and treated by compounds (1 μM) overnight. After treatment, cells were fixed in 4% formaldhehyde at 37° C. for 15 minutes, then permeabilized for 5 minutes with Triton X-100 in PBS.
A general note: In western blotting, separated proteins are transferred to a membrane and probed.

The next assay deals with HeLa cells. Kind of assay: Cell viability / antiproliferative assay. It is filed as cell-based. To be noted: HeLa cells, average of three independent experiments, concentration that induced 50% death, read-out: IC50 (in nM), antiproliferative assay. The text has this: Antiproliferative assays with HeLa cells have been performed with the preferred compounds and compared to the C1 and C2. The average of three independent experiments is shown. IC50 obtained with C1 and C2 were previously reported in Hoang et al, 2009, and are indicated for comparison. The lateral chain of each molecule is recalled, knowing that all the molecules have an oxo group at position 11. IC50 are indicated, i.e. the concentration that induced 50% death.
H358, H322 (lung cancer cells), U373 (glioblastomes) and HeLa ([…]) were grown in DMEM (1.5 g/L glucose) whereas HL60 (human myeloid cell line) cells were in RPMI 1640. U2OS (a human osteosarcoma cell line) cells were cultured in McCoy's Medium 5 A and liver cells (SK Hep 1) in DMEM (4 g/L glucose, (Gibco-Invitrogen). Media (Gibco-Invitrogen), were supplemented with 10% heat-inactivated foetal bovine serum (Gibco-Invitrogen), L-glutamine (2 mM), penicillin (100 UI/ml) and streptomycin (100 μg/ml).
Cell proliferation assays were conducted in 96 well culture plates. Assays were run in triplicate. Cell viability was estimated upon 72 h of treatment with varying concentrations of compound by addition of CellTiter 96Queous one Solution Reagent (Promega) directly to culture wells under conditions defined by the manufacturer.

In assay [1] the target is T1, NUAK1 (Homo sapiens, UniProt O60285).
T1 construct: Reaction biology Corp (USA), service
T1 sequence (O60285 1-661): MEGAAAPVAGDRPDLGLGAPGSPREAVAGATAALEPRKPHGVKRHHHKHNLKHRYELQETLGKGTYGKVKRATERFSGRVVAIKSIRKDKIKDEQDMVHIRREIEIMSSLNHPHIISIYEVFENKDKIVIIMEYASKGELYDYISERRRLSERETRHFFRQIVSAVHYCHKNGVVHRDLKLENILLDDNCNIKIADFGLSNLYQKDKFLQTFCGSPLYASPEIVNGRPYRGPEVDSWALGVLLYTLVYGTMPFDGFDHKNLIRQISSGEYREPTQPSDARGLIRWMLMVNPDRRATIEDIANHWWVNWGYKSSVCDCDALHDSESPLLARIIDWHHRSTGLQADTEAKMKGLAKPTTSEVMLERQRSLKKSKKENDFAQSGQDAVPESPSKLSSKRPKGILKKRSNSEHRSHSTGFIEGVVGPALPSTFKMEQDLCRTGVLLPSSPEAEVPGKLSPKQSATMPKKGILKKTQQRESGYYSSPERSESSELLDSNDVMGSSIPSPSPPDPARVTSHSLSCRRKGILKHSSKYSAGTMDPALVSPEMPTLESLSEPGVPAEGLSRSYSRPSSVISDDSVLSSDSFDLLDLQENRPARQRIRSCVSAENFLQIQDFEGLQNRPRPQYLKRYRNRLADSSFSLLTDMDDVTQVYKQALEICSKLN
Kind of assay: In vitro IC50 on recombinant kinase. In kind it is biochemical. As to the method: The efficiency of the 3-amino-ethoxy compounds to inhibit Nuak1 was determined in vitro.
The profiling was performed at the MRC (Dundee University), in duplicate, on a set of 121 kinases. The panel is representative of the major different classes of kinases. Compounds were used at the concentration of 1 μM. In vitro, IC50 were determined on recombinant kinases by Reaction biology Corp (USA).

The target of assay [2] is T1, NUAK1. Kind of assay: Nuak1 inhibition in cellulo: LATS1 stabilization by western blot. In kind it is cell-based. To be noted: HeLa cells treated ON; whole cell extracts, WB, compared to control. As to the method:
HeLa cells were treated ON by C21 (also named CH21) and C14M and compared to the control (C0). Whole cell extracts were analyzed by WB with anti LATS1 monoclonal antibody and the loading was quantified through the tubulin signal.
Therefore the possibility of inhibiting Nuakl, in cellulo, was evaluated through the stabilization of the Large Antigen Tumour Suppressor LATS1.
as §1

Where two headings read alike, the source gives them in different places.

Chain of Aurora B (Q96GD4 whole entry): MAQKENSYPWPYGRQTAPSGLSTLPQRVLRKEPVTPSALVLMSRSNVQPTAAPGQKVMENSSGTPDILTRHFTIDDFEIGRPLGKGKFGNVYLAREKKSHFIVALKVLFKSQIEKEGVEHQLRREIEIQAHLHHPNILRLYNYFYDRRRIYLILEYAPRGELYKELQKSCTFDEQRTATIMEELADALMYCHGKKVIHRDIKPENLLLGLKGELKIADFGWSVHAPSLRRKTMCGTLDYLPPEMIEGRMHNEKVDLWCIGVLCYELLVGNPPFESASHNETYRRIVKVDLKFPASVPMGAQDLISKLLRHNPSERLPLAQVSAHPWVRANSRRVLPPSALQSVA

Take `COCCOc1ccc2c(ccc3[nH]c4c(C)c[nH]c(=O)c4c32)c1` [Compound C711, 3-(2-Methoxyethoxy)-8-methyl-7H,10H-benzo[e]pyrido(4,3-b)indol-11-one]: the “Aurora B inhibition” value on Aurora B is “−”.

As to `COCCOc1ccc2c(ccc3[nH]c4c(C)cnc(Cl)c4c32)c1` [Compound C708, 11-Chloro-3-(2-methoxyethoxy)-8-methyl-7H-benzo[e]pyrido(4,3-b)indole], the “Aurora B inhibition” value on Aurora B is “−”.

Take `Cc1cnc(Cl)c2c1[nH]c1ccc3cc(OCCN4CCCCC4)ccc3c12` [Compound C709, 11-Chloro-3-(2-(piperidin-1-yl)ethoxy)-8-methyl-7H-benzo[e]pyrido(4,3-b)indole]: on Aurora B, the “Aurora B inhibition” value is reported as “−”.

`Cc1c[nH]c(=O)c2c1[nH]c1ccc3cc(OCCN4CCCCC4)ccc3c12` [Compound C710, 3-(2-(Piperidin-1-yl)ethoxy)-8-methyl-7H,10H-benzo[e]pyrido(4,3-b)indol-11-one]: the “Aurora B inhibition” value on Aurora B is “+++”.

Take `CCc1cnc(Cl)c2c1[nH]c1ccc3cc(OCCN(C)C)ccc3c12` [Compound C40, 11-Chloro-3-(2-N,N-dimethylaminoethoxy)-8-ethyl-7H-benzo[e]pyrido(4,3-b)indole]: on Aurora B, the “Aurora B inhibition” value is “−”.

For the molecule `Cc1cncc2c1[nH]c1ccc3cc(OCCCN(C)C)ccc3c12` [Compound C23, 3-(3-N,N-dimethylaminopropoxy)-8-methyl-7H-benzo[e]pyrido(4,3-b)indole], the “Aurora B inhibition” value at Aurora B is on record as “−”.

As to `Cc1c[nH]c(=O)c2c1[nH]c1ccc3cc(OCCN4CCOCC4)ccc3c12` [Compound C07, 3-(2-(Morpholin-4-yl)ethoxy)-8-methyl-7H,10H-benzo[e]pyrido(4,3-b)indol-11-one], the “Aurora B inhibition” value at Aurora B is “+++”. Besides, the IC50 with HeLa cells worked out at 107 ± 12 nM; at NUAK1 [1], 1.6 nM.

On to `Cc1cnc(Cl)c2c1[nH]c1ccc3cc(OCCN4CCOCC4)ccc3c12` [Compound C05, 11-Chloro-3-(2-(morpholin-4-yl)ethoxy)-8-methyl-7H-benzo[e]pyrido(4,3-b)indole], for which the “Aurora B inhibition” value at Aurora B is given as “−”.

Regarding `CCc1c[nH]c(=O)c2c1[nH]c1ccc3cc(OCCN(C)C)ccc3c12` [Compound C48, 3-(2-N,N-dimethylaminoethoxy)-8-ethyl-7H,11H-benzo[e]pyrido(4,3-b)indol-11-one], on Aurora B, the “Aurora B inhibition” value is reported as “+++”. In addition, the IC50 worked out at 53 ± 3 nM in the assay on HeLa cells (Homo sapiens, HeLa) and 5.7 nM at NUAK1 [1].

As to `COc1ccc2c(c1)CCc1[nH]c3c(C)c[nH]c(=O)c3c1-2` [Compound C11, reference compound], the “Aurora B inhibition” value on Aurora B was “−”.

As for `Cc1c[nH]c(=O)c2c1[nH]c1ccc3cc(OCCN4CCOCC4)ccc3c12` [Compound C07M, 3-(2-(Morpholin-4-yl)ethoxy)-8-methyl-7H,10H-benzo[e]pyrido(4,3-b)indol-11-one], the “Aurora B kinase inhibition of maleate salts (in words)” value (from here on “Aurora B kinase inhibition”) on Aurora B is on record as “maintained”. Besides, the IC50 in the assay with HeLa cells amounted to 287 ± 32 nM.

For the molecule `COc1ncc(C)c2[nH]c3ccc4cc(OCCN(C)C)ccc4c3c12` [Compound C12, 11-Methoxy-3-(2-N,N-dimethylaminoethoxy)-8-methyl-7H-benzo[e]pyrido(4,3-b)indole], on Aurora B, the “Aurora B inhibition” value is “−”.

For the molecule `CCc1c[nH]c(=O)c2c1[nH]c1ccc3cc(OCCN(C)C)ccc3c12` [Compound C48M, 3-(2-N,N-dimethylaminoethoxy)-8-ethyl-7H,11H-benzo[e]pyrido(4,3-b)indol-11-one], the “Aurora B kinase inhibition” value on Aurora B is listed as “maintained”. Further, the 50% inhibitory concentration (IC50) in the assay with HeLa cells stood at 63 ± 17 nM.

Take `Cc1c[nH]c(=O)c2c1[nH]c1ccc3cc(OCCN(C)C)ccc3c12` [Compound C14M, 3-(2-N,N-Dimethylaminoethoxy)-8-methyl-7H,10H-benzo[e]pyrido(4,3-b)indol-11-one]: the “Aurora B kinase inhibition” value at Aurora B is “maintained”. In addition, the IC50 in the assay with HeLa cells is 114 ± 82 nM. For the same molecule, the “LATS1 protein level (in words)” value on NUAK1 [2] is “large increase”.
